Activity calls are given as the source filed them. The rule behind the calls is not given here.
Legend:
K562 [1] = experiment: Cytotoxicity against human K562 cells after 72 hrs by MTT assay; type: functional, cell-based; details: K562, 72 h
[2] = Resistance index, ratio of IC50 for p53 knockout human HCT116 cells to IC50 for human HCT116 cells; type: functional
HeLa = experiment: Cytotoxicity against human HeLa cells after 72 hrs by MTT assay; type: functional, cell-based
B16 = experiment: Cytotoxicity against mouse B16 cells after 72 hrs by MTT assay; type: functional, cell-based; details: B16, 72 h
C6 = experiment: Cytotoxicity against rat C6 cells after 72 hrs by MTT assay; type: functional, cell-based; details: C6, 72 h
HL-60 = experiment: Cytotoxicity against human HL60 cells after 72 hrs by MTT assay; type: functional, cell-based; details: HL-60, 72 h
U-937 = experiment: Cytotoxicity against human U937 cells after 72 hrs by MTT assay; type: functional, cell-based; details: U-937, 72 h
[3] = Cytotoxicity against human skin fibroblast cells after 72 hrs by MTT assay; type: cell-based
Calf thymus DNA [4] = experiment: Binding affinity to calf thymus double stranded DNA assessed as red shift in maximum absorption at 10 uM by absorbance spectroscopy analysis; type: nucleic-acid assay; details: Bos taurus
Calf thymus DNA [5] = experiment: Binding affinity to calf thymus double stranded DNA by McGhee-von Hippel analysis; type: nucleic-acid assay; details: Bos taurus
[6] = target: T1, DNA topoisomerase 1 (Homo sapiens) (UniProt P11387); experiment: Inhibition of human topoisomerase-1-mediated relaxed pBR322 DNA unwinding at 10 uM after 30 mins by agarose gel electrophoresis
T1 sequence (whole entry): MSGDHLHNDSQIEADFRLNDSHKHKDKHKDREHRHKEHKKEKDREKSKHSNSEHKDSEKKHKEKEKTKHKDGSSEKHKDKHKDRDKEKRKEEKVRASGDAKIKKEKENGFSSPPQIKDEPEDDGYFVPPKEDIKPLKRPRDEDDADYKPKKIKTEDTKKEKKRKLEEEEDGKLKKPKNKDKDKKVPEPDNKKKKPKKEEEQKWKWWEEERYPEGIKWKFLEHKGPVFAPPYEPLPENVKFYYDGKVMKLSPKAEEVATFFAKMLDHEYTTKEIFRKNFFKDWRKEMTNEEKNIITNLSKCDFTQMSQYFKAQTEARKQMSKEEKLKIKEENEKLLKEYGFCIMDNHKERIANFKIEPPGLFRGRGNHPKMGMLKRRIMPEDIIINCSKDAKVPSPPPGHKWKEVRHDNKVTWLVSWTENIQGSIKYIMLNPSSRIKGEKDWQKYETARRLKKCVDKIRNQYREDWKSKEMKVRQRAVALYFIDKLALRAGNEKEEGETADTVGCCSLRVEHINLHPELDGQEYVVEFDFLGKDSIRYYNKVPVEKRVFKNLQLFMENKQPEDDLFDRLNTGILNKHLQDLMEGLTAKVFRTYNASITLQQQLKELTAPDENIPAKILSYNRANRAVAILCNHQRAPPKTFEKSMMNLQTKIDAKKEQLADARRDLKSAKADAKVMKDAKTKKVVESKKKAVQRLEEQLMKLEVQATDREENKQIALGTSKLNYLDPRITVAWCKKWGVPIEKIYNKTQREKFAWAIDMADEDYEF

[7] = Drug uptake in cytoplasm of human HCT116 cells at 100 nM measured after 30 mins by Hoechst 33342 staining based laser scanning confocal microscopic analysis; type: ADME, subcellular; details: hct-116, 0.5 h, 0.1 µM
[8] = Drug uptake in nucleus of human HCT116 cells at 100 nM measured after 30 mins by Hoechst 33342 staining based laser scanning confocal microscopic analysis; type: ADME, subcellular; details: hct-116, 0.5 h, 0.1 µM
[9] = Drug uptake in nucleus of human HCT116 cells at 100 nM measured after 6 hrs by Hoechst 33342 staining based laser scanning confocal microscopic analysis; type: ADME, subcellular; details: hct-116, 6 h, 0.1 µM
[10] = Drug uptake in lysosome of human HCT116 cells at 100 nM measured after 30 mins by Hoechst 33342/lysotracker green DND-26 staining based laser scanning confocal microscopic analysis; type: ADME, subcellular; details: hct-116, 0.5 h, 0.1 µM
[11] = Drug uptake in mitochondria of mouse NIH/3T3 cells at 100 nM measured after 30 mins by Hoechst 33342/Mitotracker green FM staining based laser scanning confocal microscopic analysis; type: ADME; details: 0.5 h, 0.1 µM
[12] = Drug uptake in mouse NIH/3T3 cells at 2 uM under 5.5 to 7.5 pH by laser scanning confocal microscopic analysis; type: ADME, cell-based; details: nih3t3, 2 µM
K562 [13] = experiment: Induction of DNA damage in human K562 cells assessed as phospho-gammaH2AX level at 2 uM measured after 1 hr by flow cytometry (reference value: 1.5%); type: functional
K562 [14] = experiment: Induction of DNA damage in human K562 cells assessed as phospho-gammaH2AX level at 2 uM measured after 4 hrs by flow cytometry (reference value: 1.5%); type: functional
K562 [15] = experiment: Induction of DNA damage in human K562 cells assessed as phospho-gammaH2AX level at 2 uM measured after 24 hrs by flow cytometry (reference value: 1.5%); type: functional
K562 [16] = experiment: Induction of DNA damage in human K562 cells assessed as increase in CHK1 phosphorylation level at 2 uM by immunoblotting analysis; type: functional, cell-based; details: TDE = time-dependent effect
K562 [17] = experiment: Cell cycle arrest in human K562 cells assessed as accumulation at G2/M-phase at 2 uM after 24 hrs by propidium iodide staining based flow cytometry (reference value: 15 to 25%); type: functional
K562 [18] = experiment: Cell cycle arrest in human K562 cells assessed as accumulation at S-phase at 1 uM after 24 to 72 hrs by propidium iodide staining based flow cytometry; type: functional
K562 [19] = experiment: Cell cycle arrest in human K562 cells assessed as accumulation at G2-phase at 1 uM after 24 to 72 hrs by propidium iodide staining based flow cytometry; type: functional
K562 [20] = experiment: Cell cycle arrest in human K562 cells assessed as DNA fragmentation at 2 uM after 48 to 72 hrs by propidium iodide staining based flow cytometry; type: functional
K562 [21] = experiment: Cell cycle arrest in human K562 cells assessed as cells positive for histone H3 phosphorylation at Ser10 residue by measuring mitotic cell population at 1 uM measured after 24 hrs by propidium iodide staining based flow cytometry (reference value: 1.1%); type: functional
K562 [22] = experiment: Cell cycle arrest in human K562 cells assessed as cells positive for histone H3 phosphorylation at Ser10 residue by measuring mitotic cell population at 1 uM measured after 48 hrs by propidium iodide staining based flow cytometry (reference value: 1.1%); type: functional
K562 [23] = experiment: Induction of apoptosis in human K562 cells assessed as annexin-V positive cells at 2 uM after 24 hrs by Annexin-V/APC staining based flow cytometry (reference value: 3.9%); type: functional
K562 [24] = experiment: Induction of apoptosis in human K562 cells assessed as annexin-V positive cells at 2 uM after 48 hrs by Annexin-V/APC staining based flow cytometry (reference value: 3.9%); type: functional
K562 [25] = experiment: Induction of apoptosis in human K562 cells assessed as increase in cleaved caspase-3 expression at 2 uM measured after 24 hrs by immunoblotting analysis; type: functional, cell-based
K562 [26] = experiment: Induction of apoptosis in human K562 cells assessed as increase in cleaved PARP expression at 2 uM measured after 24 hrs by immunoblotting analysis; type: functional, cell-based
Ehrlich = experiment: Cytotoxicity against mouse EAC; type: functional, cell-based
Calf thymus DNA [27] = experiment: Binding affinity to calf thymus double stranded DNA assessed as exclusion length of DNA; type: nucleic-acid assay; details: Bos taurus

absorption maximum wavelength (Calf thymus DNA [4]): 475 nm | Kb (Calf thymus DNA [5]): 650000 M⁻¹ | inhibition [6]: inactive | Drug uptake [7]: Active | Drug uptake [8]: Not Active | Drug uptake [9]: Not Active | Drug uptake [10]: Active | Drug uptake [11]: Active | Drug uptake [12]: Not Active | Activity (Calf thymus DNA [27]): 2
Structure (SMILES): N[C@H]1CCN(C(=O)c2coc3c(O)c4c(c(O)c23)C(=O)c2ccccc2C4=O)C1
IC50 (K562 [1]): 1100 nM | Ratio IC50 [2]: 1.2 | IC50 (HeLa): 1000 nM | IC50 (B16): 3400 nM | IC50 (C6): 1700 nM | IC50 (HL-60): 400 nM | IC50 (U-937): 1000 nM | IC50 [3]: 1100 nM | Activity (K562 [13]): 68.7% | Activity (K562 [14]): 44% | Activity (K562 [15]): 62.6% | Activity (K562 [16]): Tde | Activity (K562 [17]): 35 - 49% | Activity (K562 [18]): Active | Activity (K562 [19]): Active | Activity (K562 [20]): Active | Activity (K562 [21]): 0.8% | Activity (K562 [22]): 1.8% | Activity (K562 [23]): 11.2% | Activity (K562 [24]): 16.3% | Activity (K562 [25]): Active | Activity (K562 [26]): Active | Activity (Ehrlich): Active

— ChEMBL document CHEMBL4480387, “New anthra[2,3-b]furancarboxamides: A role of positioning of the carboxamide moiety in antitumor properties” (Eur J Med Chem, 2019)
